As a reminder, the IC50 is the point on the concentration scale where inhibition reaches its midpoint.

The text below walks through data of patent US11352350B2, “IRAK degraders and uses thereof” (Kymera Therapeutics, Inc., priority 2018, dated 2022).

Test [1] deals with T1, IRAK4 (Homo sapiens (Human), UniProt Q9NWZ3). The test is described as follows: IRAK4 MSD degradation in OCI-LY10. Type of test: cell-based. Conditions: for DC50: OCI-LY10, 4 hrs, MSD, read-out: IRAK4 MSD degradation in OCI-LY10 at 4 hrs: Average external-Abs DC50. In a few lines:
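OCI-LY10 cells treated with 8-point 1:3 dilutions (top 1 to 10 μM final) for 4 to 24 h at 37° C. Lysate IRAK4 measured by MSD sandwich immunoassay (2H9 capture, Y279 detection, SULFO-TAG anti-rabbit). DC50 from three-parameter logistic fit.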

The target of test [2] is T1, IRAK4. The test is described as follows: IRAK4 degradation in human whole blood monocyte - flow cytometry. To be noted: read-out: IRAK4 degradation in whole blood monocyte-Flow cytometry: Average external Abs IC50. The class given is cell-based. The essentials:
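Fresh heparinized human whole blood dosed (10-point, 5-fold, 0.1% DMSO) for 20 h or 4 h at 37 °C, then fixed, stained and IRAK4 MFI quantified by flow in CD14+ monocytes and CD14− lymphocytes. DC50 and Dmax via 4-parameter logistic fit normalized to DMSO and 10 μM control.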
(In general: In flow cytometry, cells or beads pass a laser one at a time.)

A further test has as its system U2932. The test is described as follows: U2932 viability, CTG. The class given is cell-based. Conditions: Homo sapiens, U2932.
Test [3] addresses T1, IRAK4. The test is described as follows: IRAK4 quantification in xenograft tumors by UPLC-MS/MS (tumor PD). Type of test: in vivo, mouse. To be noted: OCI-LY10 xenograft-bearing mice, oral dosing; FIG. 14. Here is the method: At termination: At pre-determined time points based on study design, animals were humanely sacrificed by CO2. Blood was obtained by cardiac puncture for isolation of plasma, any residual tumor was removed and divided in 2 portions, 1 (minimal) for terminal compound exposure and 1 to determine IRAK4 and actin. Compound was determined in tumor and plasma using LC/MS with calibrated standards.
Interleukin-1 receptor-associated kinase 4 (IRAK4) was quantified in human OCI-LY10 and TMD8 xenograft tumors, together with mouse splenocytes and peripheral blood mononuclear cells (PBMCs), by ultra-performance liquid chromatography-tandem mass spectrometry (UPLC-MS/MS). The concentrations of IRAK4 were normalized by the concentrations of actin in the respective samples. […]
Signature peptide concentrations were quantitated using a sensitive and specific targeted LC-MS/MS method. […]
Signature peptide levels (LAVAIK, […]) were quantified by UPLC-MS/MS. […] A SCIEX TripleTOF 6600 LC-MS/MS system was used for the detection and quantitation of analytes. The intensities of the analytes and ISs were determined by integration of extracted ion peak areas using Analyst and MultiQuant 3.0 software. […] Measured peptide levels were corrected for sample work up and converted to actual protein concentrations in ng/mg total protein of cell lysate. […]

The next test has as its system SU-DHL2. The test is described as follows: SU-DHL2 viability, CTG. Type of test: cell-based. Conditions: Homo sapiens, SU-DHL-2.

Each structure is given as a SMILES string. Like-named read-outs stand apart in the source and are kept apart here.

T1 sequence (Q9NWZ3 whole entry): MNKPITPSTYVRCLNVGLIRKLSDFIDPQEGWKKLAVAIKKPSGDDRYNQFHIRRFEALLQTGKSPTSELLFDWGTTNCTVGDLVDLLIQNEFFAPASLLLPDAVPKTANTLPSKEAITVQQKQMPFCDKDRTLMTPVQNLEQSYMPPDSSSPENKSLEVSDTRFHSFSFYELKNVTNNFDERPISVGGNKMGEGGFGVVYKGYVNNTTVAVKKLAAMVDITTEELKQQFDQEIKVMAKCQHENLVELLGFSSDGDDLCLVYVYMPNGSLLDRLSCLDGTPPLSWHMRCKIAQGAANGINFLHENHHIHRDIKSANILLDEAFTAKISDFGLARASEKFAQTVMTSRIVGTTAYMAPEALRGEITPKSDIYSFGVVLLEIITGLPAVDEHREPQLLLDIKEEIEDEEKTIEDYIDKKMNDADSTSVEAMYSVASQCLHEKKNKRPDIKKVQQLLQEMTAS

As to `CN(CCCOCCCc1cccc2c1n(C)c(=O)n2C1CCC(=O)NC1=O)C[C@H]1CC[C@H](n2cc(NC(=O)c3coc(-c4ccnc(NCC5CC5)c4)n3)c(C(F)F)n2)CC1` (mixture of isomers) [I-30, 2-[2-(Cyclopropylmethylamino)-4-pyridyl]-N-[3-(difluoromethyl)-1-[4-[[3-[3-[1-(2,6-dioxo-3-piperidyl)-3-methyl-2-oxo-benzimidazol-4-yl]propoxy]propyl-methyl-amino]methyl]cyclohexyl]pyrazol-4-yl] oxazole-4-carboxamide], the DC50 at IRAK4 [1] is under 10 nM. The “depletion of IRAK4 in MYD88 mutant lymphoma cell lines” value on IRAK4 [1] (OCI-LY10 and TMD8, FIGS. 1-3 and 10) is given as “potent depletion of IRAK4”. Further, the half-inhibitory concentration (IC50) on IRAK4 [2] is under 50 nM.
Take `CN(C[C@H]1CC[C@H](n2cc(NC(=O)c3coc(-c4ccnc(NCC5CC5)c4)n3)c(C(F)F)n2)CC1)C1CCN(Cc2cccc3c2n(C)c(=O)n3C2CCC(=O)NC2=O)CC1` (stereo partly shown) [I-75, 2-(2-((cyclopropylmethyl)amino)pyridin-4-yl)-N-(3-(difluoromethyl)-1-((1r,4r)-4-(((1-((1-(2,6-dioxopiperidin-3-yl)-3-methyl-2-oxo-2,3-dihydro-1H-benzo[d]imidazol-4-yl)methyl)piperidin-4-yl)(methyl)amino)methyl)cyclohexyl)-1H-pyrazol-4-yl)oxazole-4-carboxamide]: the DC50 is under 10 nM on IRAK4 [1] and 50 to 100 nM on IRAK4 [2]. In addition, the IC50 came out at 374 nM in the test on U2932 (MYD88 WT Lines, read-out: U2932 Viability, CTG IC50); 374 nM in the test with U2932 (MYD88 WT, read-out: U2932 CTG IC50); 290 nM with SU-DHL2 (MYD88 MUT, read-out: SU-DHL2 CTG IC50); 290 nM with SU-DHL2 (MYD88 Mutant Lines, read-out: SU-DHL2 Viability, CTG IC50). At IRAK4 [3], the “degradation of IRAK4 correlating with tumor regression” value is recorded as over 75%.
